Results published in US20190099468A1, “METHOD TO PROTECT AND SEAL THE OCULAR SURFACE” (UNIVERSITY OF SOUTHERN CALIFORNIA, priority 2017, published 2019).
Structures can show the parent of a compound that is named as a salt.

Assays:
HCLE stratified cultures [1] = assay: Lectin binding (fluorescein-conjugated jacalin); type: cell-based, human; details: 3 mM tBHP, 2 hours; Dynasore 40 uM; FIG. 6A
From the text: (§1) The purpose of this study was to investigate mechanisms of dye uptake relevant to ocular surface disease. We hypothesized that stimulation of plasma membrane remodeling by sublethal cell damage would result in vital dye uptake into endocytic repair vesicles. Oxidative stress has been implicated in ocular surface damage due to dry eye and many other ocular surface disorders, thus we chose this as the damaging stress for our study. An aqueous stock solution of tert-butyl hydroperoxide (tBHP) was diluted into the medium of human cell cultures or mouse eye organ cultures as we have previously described. The final dilution of tBHP used for cell culture experiments was 3 mM or 10 mM (as indicated in the individual experimental details). A final dilution of 10 mM tBHP was used for mouse eye organ culture experiments. These optimal concentrations were determined empirically in dose-response assessments as causing a high level of vital dye staining without killing cells. As soon as tBHP was added, all cultures were returned to the cell culture incubator under 5% CO2 atmosphere. […]
(§2) A telomerase-immortalized line of human corneal limbal epithelial (HCLE) cells was used for all experiments employing cell culture. […] Stratification was routinely evaluated using phase contrast microscopy; differentiation leading to glycocalyx barrier function was evaluated using the rose bengal penetration assay. […]

HCLE monolayer cultures [2] = assay: MTT/WST-1 metabolic assays for cytotoxicity; type: cell-based, human; details: 10 mM tBHP, 2 hours; Dynasore 40 uM at the same time; FIG. 5A
From the text: as §1, §2

cardiomyocyte = details: references [56-58]; cited from earlier work
HCLE monolayer cultures [3] = assay: Trypan blue exclusion assay; type: cell-based, human; details: 10 mM tBHP, 3 hours; Dynasore 40 uM at the same time; FIG. 5B
From the text: as §1, with “The final dilution of tBHP used for cell culture experiments was 3 mM or 10 mM (as indicated in the individual experimental details). A final dilution of 10 mM tBHP was used for mouse eye organ culture experiments.” left out, “cells.” for “cells. As soon as tBHP was added, all cultures were returned to the cell culture incubator under 5% CO2 atmosphere.”
as §2
Cells were stained with filtered 0.4% trypan blue dye (Thermo Fisher Scientific) for 4 minutes following 3 washes with PBS. The extent of staining was measured qualitatively by imaging under white light, and quantitatively using a plate reader at 590 nm.

[4] = test system: HCLE monolayer cell cultures; assay: Vital dye staining assay (fluorescein), oxidative stress, monolayer cells; type: cell-based, human; details: 3 mM tBHP, 2 hours; Genistein 200 uM, Chlorpromazine 8 ug/mL, Dynasore 40 uM; FIG. 2B
From the text: as §1, with “atmosphere. Stressed cultures were compared to unstressed controls incubated similarly for the same time period.” for “atmosphere.”
as §2
(§3) Vital dye staining of cells in culture was performed using sodium fluorescein (Sigma-Aldrich). […] Dye uptake was evaluated qualitatively by imaging. Images (excitation/emission=488/510 nm) were taken immediately after washing, so that staining could be evaluated before dye diffused. Fluorescein uptake by cultured cells was quantified using a plate reader and depicted in graphs as relative fluorescence units (RFU). Rose bengal uptake by cultured cells or eyes was quantified using a modification of a previously described method. […]

[5] = test system: MPS-treated monolayer cells; details: publication [61]; cited from earlier work
LGALS3 = assay: Western blotting of LGALS3 in cell culture medium; type: cell-based, human; details: stratified cultures, 3 mM tBHP, 2 hours; Dynasore 40 uM; FIG. 6B
From the text: as §1, §2

HCLE monolayer cultures [6] = assay: Endocytosis assay: uptake of Alexa Fluor 568-conjugated TF under oxidative stress; type: cell-based, human; details: 3 mM tBHP; co-treatment with Dynasore 40 uM; FIG. 2A
From the text: as §1, with “The final dilution of tBHP used for cell culture experiments was 3 mM or 10 mM (as indicated in the individual experimental details). A final dilution of 10 mM tBHP was used for mouse eye organ culture experiments.” left out, “cells.” for “cells. As soon as tBHP was added, all cultures were returned to the cell culture incubator under 5% CO2 atmosphere.”
as §2
Endocytosis was quantified by monitoring cell uptake of human Alexa Fluor 568-conjugated TF (serum transferrin; Thermo Fisher Scientific, Waltham, Mass.). […] Cells were then imaged with a Keyence BZ-X700 fluorescence microscope (excitation/emission=532/588 nm). Alexa Fluor 568-conjugated TF uptake was quantified by image J analysis.

HCLE stratified cultures [7] = assay: Vital dye staining assay (fluorescein, rose bengal), oxidative stress, stratified and differentiated cells; type: cell-based, human; details: 10 mM tBHP; Genistein 200 uM, Chlorpromazine 8 ug/mL, Dynasore 40 uM, Dyngo-4a 15 uM; FIG. 3B-D
From the text: (§4) The purpose of this study was to investigate mechanisms of dye uptake relevant to ocular surface disease. We hypothesized that stimulation of plasma membrane remodeling by sublethal cell damage would result in vital dye uptake into endocytic repair vesicles. Oxidative stress has been implicated in ocular surface damage due to dry eye and many other ocular surface disorders, thus we chose this as the damaging stress for our study. An aqueous stock solution of tert-butyl hydroperoxide (tBHP) was diluted into the medium of human cell cultures or mouse eye organ cultures as we have previously described. The final dilution of tBHP used for cell culture experiments was 3 mM or 10 mM (as indicated in the individual experimental details). A final dilution of 10 mM tBHP was used for mouse eye organ culture experiments. These optimal concentrations were determined empirically in dose-response assessments as causing a high level of vital dye staining without killing cells. As soon as tBHP was added, all cultures were returned to the cell culture incubator under 5% CO2 atmosphere. Stressed cultures were compared to unstressed controls incubated similarly for the same time period. Cells were incubated for 2 to 3 hours and mouse eyes were incubated for 2.5 hours before endpoint determination.
(§5) To learn whether endocytosis was involved in dye uptake, the process was blocked by treating cells or eyes with endocytic inhibitors. Chlorpromazine hydrochloride (MP Biologicals, Solon, Ohio), an inhibitor of clathrin-mediated endocytosis, was used at a final dilution of 8 ug/mL. Genistein (Sigma-Aldrich, St Louis, Mo.), an inhibitor of caveolin-mediated endocytosis, was used at 200 uM final dilution. […] All inhibitors were dissolved in DMSO, which served as the treatment vehicle. The same volume of DMSO was added to matching untreated cultures as a vehicle control.
as §2, §3

[8] = test system: ocular surface of ex vivo mouse eyes; assay: Vital dye staining assay, mouse eye organ culture under oxidative stress; details: for dye uptake at the ocular surface, post-treatment: 10 mM tBHP first, FIG. 4B; for vital dye uptake once the damage was done: used after stress was applied
From the text: as §4, §5
The University of Southern California's Institutional Animal Care and Use Committee approved the research protocol number 11412 for use of mice in this study. Research was conducted in adherence with the Association for Research in Vision and Ophthalmology (ARVO) Statement for the Use of Animals in Ophthalmic and Visual Research. Wild type C57B1/6J mice, 6-8 weeks of age, were purchased from Jackson Labs (Bar Harbor, Me.). Prior to use in an experiment, mice were housed in a pathogen-free barrier facility and kept at […], relative humidity 60%±10%, with alternating 12-hour light/dark cycles. To obtain eyes for organ culture, euthanasia was performed using compressed CO2 gas, according to the American Veterinary Medical Association Guidelines for the Euthanasia of Animals: 2013 Edition. […]
Vital dye staining of cells in culture was performed using sodium fluorescein (Sigma-Aldrich). […] Dye uptake was evaluated qualitatively by imaging. Images (excitation/emission=488/510 nm) were taken immediately after washing, so that staining could be evaluated before dye diffused. Fluorescein uptake by cultured cells was quantified using a plate reader and depicted in graphs as relative fluorescence units (RFU). Rose bengal uptake by cultured cells or eyes was quantified using a modification of a previously described method. After imaging, the stained cells or eyes were incubated in 100 uL of DMSO at room temperature for 1 hour, and the solution was recovered into the wells of a 96 well plate to read in a plate reader at 562 nm.

ocular surface barrier = details: mouse model, desiccating stress; cited from earlier work

Molecule: O=C(N/N=C/c1ccc(O)c(O)c1)c1cc2ccccc2cc1O [Dynasore]
- jacalin staining of cell surface mucin-type glycoconjugates (HCLE stratified cultures [1]): no effect
- protection against oxidative stress-induced increase of MTT/WST-1 absorbance (HCLE monolayer cultures [2]): protective, in particular for the WST-1 assay
- cardiomyocyte apoptosis following oxidative stress (cardiomyocyte): protects cardiomyocyte against entering apoptosis following oxidative stress
- protection against oxidative stress-induced trypan blue staining (HCLE monolayer cultures [3]): remarkably protective, essentially eliminating trypan blue staining
- stress-stimulated fluorescein dye uptake [4]: also blocked
- uptake of fluorescein in MPS-treated cells [5]: inhibited uptake of fluorescein
- oxidative stress-caused increase in LGALS3 in the cell culture medium (LGALS3): inhibited this increase
- stress-stimulated TF uptake (endocytosis) (HCLE monolayer cultures [6]): blocked stress-stimulated TF uptake
- oxidative stress-stimulated vital dye uptake in stratified and differentiated cell cultures (HCLE stratified cultures [7]): very effective inhibitor
- dye uptake at the ocular surface, post-treatment ([8]; then Dynasore 40 uM for 15 or 30 minutes): dye uptake was not reduced
- dye uptake at the ocular surface, post-treatment ([8]; then Dynasore 80 uM for 15 or 30 minutes): dye uptake was not reduced
- dye uptake at the ocular surface, co-treatment ([8]; 10 mM tBHP, Dynasore 40 uM at the same time as stress, FIG. 4A): dye uptake was prevented
- vital dye uptake once the damage was done [8]: no effect on vital dye uptake

Molecule: CN(C)CCCN1c2ccccc2Sc2ccc(Cl)cc21 [Chlorpromazine, Chlorpromazine hydrochloride]
- stress-stimulated fluorescein dye uptake [4]: blocked
- oxidative stress-stimulated vital dye uptake in stratified and differentiated cell cultures (HCLE stratified cultures [7]): no effect on vital dye uptake

Molecule: O=C(N/N=C/c1cc(O)c(O)cc1O)c1cc2ccccc2cc1O [Dyngo-4a]
- oxidative stress-stimulated vital dye uptake in stratified and differentiated cell cultures (HCLE stratified cultures [7]): very effective inhibitor of vital dye uptake
- vital dye uptake once the damage was done [8]: no effect on vital dye uptake

Molecule: O=c1c(-c2ccc(O)cc2)coc2cc(O)cc(O)c12 [Genistein]
- stress-stimulated fluorescein dye uptake [4]: blocked
- oxidative stress-stimulated vital dye uptake in stratified and differentiated cell cultures (HCLE stratified cultures [7]): no effect on vital dye uptake

Molecule: CLU: homeostatic protein clusterin, prominent at fluid-tissue interfaces; SEQ ID NO: 1 is the human isoform 2 preproprotein
- ocular surface barrier disruption (ocular surface barrier): prevents and ameliorates ocular surface barrier disruption
